Positions of bridges follow the written chain, without caps; N, C: chain ends. Non-standard residues stand in square brackets, D forms with d. S5 = C=CCCC[C@](C)(N)C(=O)O; βAla = NCCC(=O)O
What was measured:
Format in all cases: cell-based
ABC DLBCL cell lines = assay: MTS cell viability assay, ABC DLBCL; conditions: ABC DLBCL cell lines, 5 μM or 20 μM, four days (FIGS. 7A-7D)
Description: (§1) ABC and GCB DLBCL cell lines were treated with RNF31 stapled peptides of Table 2 at concentrations of 5 μM or 20 μM for four days. Cell viability was determined using the following MTS assay. Cells were plated in triplicate at a density of 15,000 cells per well in 96-well plates. Cell viability after indicated treatments was assayed by adding 3-(4,5-dimethylthiazol-2-yl)-5-(3-carboxymethoxyphenyl)-2-(4-sulphophenyl)-2H tetrazolium and an electron coupling reagent (phenazine methosulphate from Promega, Madison, Wis.), incubated for 3 hours and measured by the amount of 490 nm absorbance using a 96-well plate reader. The background was subtracted using a media only control. The results of these MTS assays done in triplicate are shown in FIGS. 7A-7D (error bars indicate the SEM), and cell viability is expressed as the fraction of cells remaining after four days treatment, relative to the initial number of cells at the start of treatment (time 0). The results of MTS cell viability assay indicate that amino-terminal cross-linked peptides RNF31-N (SEQ ID NO: 11) and RNF31-NC (SEQ ID NO: 12) were toxic to ABC DLBCL cell lines but had little effect on GCB DLBCL cell lines tested.

GCB DLBCL cell lines = assay: MTS cell viability assay, GCB DLBCL; conditions: 5 μM or 20 μM, four days (FIGS. 7A-7D)
Description: as §1

NF-κB = NF-κB luciferase reporter assay; conditions: HBL1 ABC DLBCL cells, 5 μM or 20 μM, 2 days, relative to DMSO (FIG. 4)
Description: A third experiment was done using a different reporter system for NF-κB activity. HBL1 and TMD8 ABC DLBCL lines cell lines were created with an NF-κB transcriptional reporter by transduction with lentiviral particles containing an inducible NF-κB-responsive luciferase reporter construct (SA Biosciences, Valencia, Calif.) and selected with puromycin. Luciferase activity was measured using the DUAL-LUCIFERASE™ Reporter Assay System (Promega) on a Microtiter Plate Luminometer (Dyn-Ex Technologies, Chantilly, Va.). The transduced HBL and TMD8 cell lines were then transfected with constructs that inducibly express control (SC4) or RNF31 shRNAs described above. Expression of shRNAs was induced using doxycyline, and the luciferase reporter activity in shRNF31 expression cells was measured and normalized relative to control (SC4). Cells were also treated with the specific IKKβ inhibitor (MLN120B) as a positive control. Experiments were done in triplicate, and results are shown in FIG. 2C (error bars indicate SEM).
The ability of these peptides to inhibit NF-κB activity in ABC DLBCL was determined using the NF-κB luciferase reporter assay described above. Negative control cells were treated with dimethyl sulfoxide (DMSO), and positive control cells were treated with Bruton's tyrosine kinase (Btk) inhibitor ibrutinib. […] Cells were treated with peptides at concentrations of 5 μM or 20 μM for 2 days. Relative NF-κB-luciferase reporter activity was normalized and measured relative to control (DMSO-treated) cells. The results of triplicate experiments are shown in FIG. 4 (error bars indicate the SEM).

RBCK1/RNF31 interaction = molecular target: T1, RBCK1/RNF31 interaction (Homo sapiens, UniProt Q9BYM8); assay: RBCK1/RNF31 co-immunoprecipitation (LUBAC complex formation) in co-transfected HEK-293 cells; conditions: HEK-293 cells, 5 μM or 20 μM, 24 hours, relative to DMSO (FIGS. 5, 6)
T1 construct: expressed in transfected cells; host or cells: HEK-293
T1 sequence (Q9BYM8 1-510): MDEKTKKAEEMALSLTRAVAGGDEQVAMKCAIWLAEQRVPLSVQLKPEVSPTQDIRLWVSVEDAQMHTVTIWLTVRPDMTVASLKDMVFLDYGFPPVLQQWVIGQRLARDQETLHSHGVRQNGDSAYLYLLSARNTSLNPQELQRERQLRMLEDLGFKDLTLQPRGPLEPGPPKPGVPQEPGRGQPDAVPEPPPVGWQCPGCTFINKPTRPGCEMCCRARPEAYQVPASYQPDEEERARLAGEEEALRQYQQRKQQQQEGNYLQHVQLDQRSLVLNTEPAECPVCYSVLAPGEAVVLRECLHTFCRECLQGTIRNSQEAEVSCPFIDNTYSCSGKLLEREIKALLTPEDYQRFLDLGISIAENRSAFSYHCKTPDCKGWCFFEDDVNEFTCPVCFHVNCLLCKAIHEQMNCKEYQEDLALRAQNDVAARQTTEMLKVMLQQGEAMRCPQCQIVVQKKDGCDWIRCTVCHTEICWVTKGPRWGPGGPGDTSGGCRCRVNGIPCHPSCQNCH

Substance: Ac-βAla Ser Arg Xaa Leu Thr Glu Xaa Gln Arg Gln Arg Leu Glu Pro Phe Arg Gln Arg Xaa Trp Asp Ser Xaa-NH2 (Ac-[βAla]SR[S5]LTE[S5]QRQRLEPFRQR[S5]WDS[S5]-NH2; staple 20-24, 4-8; SMILES CC(=O)NCCC(=O)N[C@@H](CO)C(=O)N[C@@H](CCCNC(=N)N)C(=O)N[C@@]1(C)CCCC=CCCC[C@@](C)(C(=O)N[C@@H](CCC(N)=O)C(=O)N[C@@H](CCCNC(=N)N)C(=O)N[C@@H](CCC(N)=O)C(=O)N[C@@H](CCCNC(=N)N)C(=O)N[C@@H](CC(C)C)C(=O)N[C@@H](CCC(=O)O)C(=O)N2CCC[C@H]2C(=O)N[C@@H](Cc2ccccc2)C(=O)N[C@@H](CCCNC(=N)N)C(=O)N[C@@H](CCC(N)=O)C(=O)N[C@@H](CCCNC(=N)N)C(=O)N[C@@]2(C)CCCC=CCCC[C@@](C)(C(N)=O)NC(=O)[C@H](CO)NC(=O)[C@H](CC(=O)O)NC(=O)[C@H](Cc3c[nH]c4ccccc34)NC2=O)NC(=O)[C@H](CCC(=O)O)NC(=O)[C@H]([C@@H](C)O)NC(=O)[C@H](CC(C)C)NC1=O) [RNF31-NC]
- Cell viability (MTS) (ABC DLBCL cell lines): toxic
- Cell viability (MTS) (GCB DLBCL cell lines): little effect
- Relative NF-κB-luciferase reporter activity (NF-κB): strongly inhibit NF-κB
- RBCK1/RNF31 interaction (anti-HA immunoprecipitation, densitometry) (RBCK1/RNF31 interaction): inhibited RBCK1/RNF31 interaction in a dose-dependent fashion
